Tested on: SD rats
Assay: Defensive withdrawal test in rats under stress (time to come out of a cylinder)
Type: in vivo, rat
Conditions: for antidepressant effect: same defensive withdrawal tests in SD rats as for L-isoleucine
Procedure: SD rats (10-week-old) were divided into two groups (10 rats in each group). One group (control group) was kept for 6 days with free access to food (standard AIN-76 diet manufactured by Nosan Corporation) and water. The other group (present invention group) was kept for 6 days with free access to food (standard AIN-76 diet containing 1% by mass of L-isoleucine) and water. Using these subject animals, depression-improving activity in rats under stress was tested according to the defensive withdrawal test method by Gutman, D. A. et al. (The Journal of Pharmacology and Experimental Therapeutics, 304 (2), 874 (2003)). That is, a rat (one from each group) was dropped, tail first, into an upright black cylinder 10 cm in diameter and 20 cm in length, and immediately covered with a lid. After 10 seconds, the cylinder was placed in an open field (100 cm long, 100 cm wide, and 45 cm high) made up of white acrylic boards, facing one corner, at a position 20 cm from the corner. […] The test was carried out under an illuminance of 200 1× in a soundproof room, and behavior of the rat was videotaped from above and observed using a monitor outside the soundproof room. Statistical processing was performed by two-sided Student's t-test.

Structure (SMILES) | time the rat took to come out of the cylinder (SD rats, 10-week-old, 6 days free access to AIN-76 diet containing 1% by mass of the amino acid, observed 5 minutes, compared to control group) | antidepressant effect
CC[C@H](C)[C@H](N)C(=O)O [L-isoleucine] | significantly shorter time to come out of the cylinder | –
CC(C)C[C@H](N)C(=O)O [L-leucine] | – | same antidepressant effect as that of L-isoleucine was confirmed
CC(C)[C@H](N)C(=O)O [L-valine] | – | same antidepressant effect as that of L-isoleucine was confirmed
